Measurements as given in ChEMBL document CHEMBL3407340, “Synthesis, radiolabeling and evaluation of novel 4-oxo-quinoline derivatives as PET tracers for imaging cannabinoid type 2 receptor” (Eur J Med Chem, 2015).
Active and inactive are the calls of the source. The calls are words filed in the database; no cut-off is given here.

How the values were obtained:
[1] = molecular target: Cannabinoid receptor 1 (Homo sapiens, UniProt P21554); experiment: Displacement of [3H]-CP-55940 from human CB1 receptor transfected in CHOK1 cells after 90 mins by liquid scintillation counting analysis; type: cell-based, CHO-K1
[2] = molecular target: Cannabinoid receptor 2 (Mus musculus) (UniProt P47936); experiment: Binding affinity to CB2 receptor in mouse spleen at 0.4 nM after 15 mins by autoradiography in presence of GW405833; conditions: tested as the 11C-labelled form
[3] = molecular target: Cannabinoid receptor 2 (Rattus norvegicus) (UniProt Q9QZN9); experiment: Binding affinity to CB2 receptor in rat spleen at 0.4 nM after 15 mins by autoradiography in presence of GW405833; type: tissue-based; conditions: tested as the 11C-labelled form
Chain of Cannabinoid receptor 2 (Rattus norvegicus) (Q9QZN9 whole entry): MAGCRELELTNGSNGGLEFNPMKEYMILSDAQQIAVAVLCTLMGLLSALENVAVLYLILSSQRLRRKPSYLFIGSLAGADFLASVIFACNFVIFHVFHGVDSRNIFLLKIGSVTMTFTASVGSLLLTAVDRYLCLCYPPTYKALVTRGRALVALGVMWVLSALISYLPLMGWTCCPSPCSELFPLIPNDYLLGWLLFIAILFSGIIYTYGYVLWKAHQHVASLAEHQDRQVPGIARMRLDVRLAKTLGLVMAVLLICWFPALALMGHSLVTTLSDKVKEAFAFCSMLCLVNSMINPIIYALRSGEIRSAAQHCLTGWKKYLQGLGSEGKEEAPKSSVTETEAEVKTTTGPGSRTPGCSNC

Chain of Cannabinoid receptor 1 (P21554 whole entry): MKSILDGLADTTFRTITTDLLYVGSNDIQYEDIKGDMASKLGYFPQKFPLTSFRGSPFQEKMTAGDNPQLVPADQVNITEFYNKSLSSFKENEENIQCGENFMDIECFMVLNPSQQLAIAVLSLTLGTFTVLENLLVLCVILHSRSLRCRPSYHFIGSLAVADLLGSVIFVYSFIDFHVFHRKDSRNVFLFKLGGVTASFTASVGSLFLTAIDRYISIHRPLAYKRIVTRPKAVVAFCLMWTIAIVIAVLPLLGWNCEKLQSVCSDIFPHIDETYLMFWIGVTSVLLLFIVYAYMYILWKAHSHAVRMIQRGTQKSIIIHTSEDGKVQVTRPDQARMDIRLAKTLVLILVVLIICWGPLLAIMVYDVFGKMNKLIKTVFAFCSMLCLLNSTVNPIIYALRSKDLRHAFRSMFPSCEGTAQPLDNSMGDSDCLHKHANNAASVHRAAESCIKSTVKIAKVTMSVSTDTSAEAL
Chain of Cannabinoid receptor 2 (Mus musculus) (P47936 whole entry): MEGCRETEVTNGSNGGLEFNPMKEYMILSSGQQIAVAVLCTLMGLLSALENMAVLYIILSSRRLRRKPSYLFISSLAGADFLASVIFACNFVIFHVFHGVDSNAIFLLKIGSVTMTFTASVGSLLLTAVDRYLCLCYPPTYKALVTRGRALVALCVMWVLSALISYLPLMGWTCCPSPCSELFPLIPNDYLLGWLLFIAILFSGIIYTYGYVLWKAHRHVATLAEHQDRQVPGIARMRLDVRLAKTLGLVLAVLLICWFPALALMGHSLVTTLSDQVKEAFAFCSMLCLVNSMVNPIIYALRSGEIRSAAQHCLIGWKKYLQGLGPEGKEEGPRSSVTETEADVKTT

Row | SMILES | Ki [1] | Activity [2] | Activity [3]
1 | CCOCCn1cc(C(=O)NC23CC4CC(CC(O)(C4)C2)C3)c(=O)c2cccc(OC)c21 | > 10 µM |  | 
2 | CCCCn1cc(C(=O)NC(C)(C)C)c(=O)c2cccc(OC)c21 | > 10 µM |  | 
3 | CCOCCn1cc(C(=O)NC23CC4CC(CC(C4)C2)C3)c(=O)c2cccc(OC)c21 | > 10 µM | inactive | inactive
4 | CCCCn1cc(C(=O)NCC2CC2)c(=O)c2cccc(OC)c21 | > 10 µM |  | 
5 | COc1cccc2c(=O)c(C(=O)NC(C)(C)C)cn(CCCF)c12 | > 10 µM |  | 
